Data on 22 compounds can be found in patent US11945784B2, “IRE1 small molecule inhibitors” (Cornell University, priority 2018, dated 2024).

Some results are limits rather than exact numbers.

T1 sequence (O75460 19-977): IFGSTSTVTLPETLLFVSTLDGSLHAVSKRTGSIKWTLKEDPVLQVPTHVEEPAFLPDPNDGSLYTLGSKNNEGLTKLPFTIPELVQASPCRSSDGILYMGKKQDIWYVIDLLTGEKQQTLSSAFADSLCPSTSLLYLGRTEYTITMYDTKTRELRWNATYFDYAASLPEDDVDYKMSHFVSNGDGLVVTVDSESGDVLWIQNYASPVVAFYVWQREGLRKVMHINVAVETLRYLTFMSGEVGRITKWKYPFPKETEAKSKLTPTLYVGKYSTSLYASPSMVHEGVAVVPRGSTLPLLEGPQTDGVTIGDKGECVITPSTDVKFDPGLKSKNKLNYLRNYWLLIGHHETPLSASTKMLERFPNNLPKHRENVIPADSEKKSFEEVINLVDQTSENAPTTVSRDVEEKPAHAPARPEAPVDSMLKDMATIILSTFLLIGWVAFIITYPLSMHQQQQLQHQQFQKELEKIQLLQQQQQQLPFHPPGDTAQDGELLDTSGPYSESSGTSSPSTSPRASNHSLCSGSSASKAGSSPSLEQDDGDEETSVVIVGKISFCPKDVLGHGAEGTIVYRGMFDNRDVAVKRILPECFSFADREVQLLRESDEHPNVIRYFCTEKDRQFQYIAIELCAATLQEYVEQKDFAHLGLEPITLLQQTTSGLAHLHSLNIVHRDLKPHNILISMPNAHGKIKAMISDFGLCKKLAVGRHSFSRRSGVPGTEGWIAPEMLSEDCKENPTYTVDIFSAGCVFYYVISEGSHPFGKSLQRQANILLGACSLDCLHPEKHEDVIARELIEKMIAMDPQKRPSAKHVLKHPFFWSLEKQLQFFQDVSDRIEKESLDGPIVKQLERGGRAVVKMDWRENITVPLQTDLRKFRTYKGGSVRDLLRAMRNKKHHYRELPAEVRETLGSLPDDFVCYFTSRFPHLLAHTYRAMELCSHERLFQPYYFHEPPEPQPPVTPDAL

One experiment has as its target T1, IRE1α (Homo sapiens (Human), UniProt O75460). Put plainly: In vitro FRET assay. The format is biochemical. The settings on record: XBP1 RNA probe. On the procedure:
In vitro FRET assay was performed to evaluate the ability of select compounds to inhibit IRE1, the results of which are summarized in Table 3. To perform the in vitro FRET assay, 1× complete assay buffer (CAB; […], 50 mM sodium citrate pH 7.15, 1 mM magnesium acetate, 0.02% tween 20) was used to dilute SignalChem IRE1α protein to a final concentration of 2 nM. Selected compounds were serially diluted with DMSO in a non-binding black 384-well plate for a total of 15 ul in each well. 2 ul of the serially diluted compound or DMSO control were then added to new wells containing 98 ul of 1×CAB, for a total volume of 100 ul, 10 ul of which were then transferred to wells of a new plate. 5 ul of the diluted IRE1α was then added to each well. 5 ul of a […] XBP1 RNA probe was then added to each well. Fluorescence was then read over 30 minutes in kinetic mode (485/515 nm).
Two RNA probes were used, XBP1 wildtype (SEQ ID NO: 2) which is able to be spliced by active IRE1α or XBP1 mutant (SEQ ID NO: 3) which is unable to be spliced. Each probe contained a 5′ 6-FAM modification and a 3′ IOWA Black FQ modification.
A second FRET assay was performed to assess ATP-mediated inhibition. In this case, compounds and IRE1α were prepared and combined as discussed above, with the addition of ATP up to 1 mM final concentration. This mixture was incubated at room temperature for 60 minutes and then 5 ul of 400 nM XBP1 wildtype or mutant RNA probe was added. Plates were then read over 30 minutes in kinetic mode (485/515 nm) and rate of fluorescence increase calculated for different compound dilutions to determine IC50 (Table 3).
Take `COc1cc(NS(=O)(=O)c2ccccc2Cl)cnc1CCc1cnc(NC2CCC(N)CC2)nc1` (stereo not shown) [Compound 18, N-(6-(2-(2-(((1r,4r)-4-aminocyclohexyl)amino)pyrimidin-5-yl)ethyl)-5-methoxypyridin-3-yl)-2-chlorobenzenesulfonamide]: the IC50 is ≤ 1 nM. `N[C@H]1CC[C@H](Nc2ncc(CCc3ccc(NS(=O)(=O)c4ccccc4Cl)nn3)cn2)CC1` [Compound 7, N-(6-(2-(2-(((1r,4r)-4-aminocyclohexyl)amino)pyrimidin-5-yl)ethyl)pyridazin-3-yl)-2-chlorobenzenesulfonamide] returned a 50% inhibitory concentration (IC50) of 1 to 5 nM.

The compound `COc1nc(NS(=O)(=O)c2cnccc2Cl)ncc1C=Cc1cnc(NC2CCC(N(C)C)CC2)nc1` (stereo not shown) [Compound 43, 4-chloro-N-(5-(2-(2-(((1r,4r)-4-(dimethylamino)cyclohexyl)amino)pyrimidin-5-yl)vinyl)-4-methoxypyrimidin-2-yl)pyridine-3-sulfonamide] came in with an IC50 of 1 to 5 nM. The same measure, in the same setting: the same measure for `Cc1nc(NS(=O)(=O)c2ccccc2Cl)ccc1CCc1cnc(NC2CCC(O)CC2)nc1` (stereo not shown) [Compound 20, 2-chloro-N-(5-(2-(2-(((1r,4r)-4-hydroxycyclohexyl)amino)pyrimidin-5-yl)ethyl)-6-methylpyridin-2-yl)benzenesulfonamide]: 100 to 1000 nM; for `Cc1cc(NS(=O)(=O)c2ccccc2Cl)ccc1CCc1cnc(NC2CCC(N)CC2)nc1` (stereo not shown) [Compound 6, N-(4-(2-(2-(((1r,4r)-4-aminocyclohexyl)amino)pyrimidin-5-yl)ethyl)-3-methylphenyl)-2-chlorobenzenesulfonamide]: ≤ 1 nM.

In a further experiment the target is T1, IRE1α. Kind of experiment: In vitro luciferase assay (IRE1α Endoribonuclease Nanoluciferase Assay). The format is cell-based. The settings on record: 293T cells, XBP1 luciferase reporter. On the procedure:
Compounds disclosed herein were assessed for disruption of IRE-1 signaling using a IRE1α Endoribonuclease Nanoluciferase Assay. Briefly, 2.5×10^6 293T cells were seeded in a 10 cm^2 tissue culture plate. About 24 hours later, the cells were transfected with Effectene. In a 15 mL Tube, the following was added: 2 μg XBP1 luciferase reporter plasmid (PGK-Luc2-P2A-XBP1u-Nanoluciferase-PEST); 300 μl EC buffer; and 16 μl Enhancer, followed by incubation at room temp for 5 minutes. Next, 60 μl Effectene (Qiagen 301427) was added, followed by incubation at room temperature for 10 minutes. 2.6 mL cDMEM media was added. Old media was aspirated from the cells, followed by addition of 7 mL fresh media. Full transfection mixture was added dropwise to cells. Cells were incubated for 6 hours, followed by trypsinization, centrifugation and resuspension in 11 mL media. 100 uL of cells were plated per a well in a 96 well plate. A day later, ER stressors of choice+/−inhibitors were added. To harvest, media was aspirated from cells completely, then 50 uL 1× passive lysis buffer (Promega: E1941) was added per well and put on shaker (300 rpm) for 30 minutes at room temperature. Cells were centrifuged, and 15 uL sample per well was added to a new, opaque white 384 well plate (Corning 3570). 15 uL OneGlo (nanoluciferase kit, Promega N1630) was added. Plates were spun down, placed on shaker (300 rpm) for 10 minutes. Plates were read on luminometer, 1000 ms integration time per well. 15 uL Stop and Glo (nanoluciferase kit) was added. Plates were spun down, placed on shaker (300 rpm) for 10 minutes. Plates were read on luminometer, 1000 ms second integration time per well. Recordings are provided below in Table 4
In the case of `COc1nc(NS(=O)(=O)c2ccccc2Cl)ccc1/C=C/c1cnc(NC2CCC(N3CCOCC3)CC2)nc1` (stereo not shown) [Compound 57, 2-chloro-N-(6-methoxy-5-((E)-2-(2-(((1r,4r)-4-morpholinocyclohexyl)amino)pyrimidin-5-yl)vinyl)pyridin-2-yl)benzenesulfonamide], the 50% effective concentration (EC50) was ≤ 5 nM. On to `CN(C)C1CCC(Nc2ncc(/C=C/c3ccc(NS(=O)(=O)c4ccccc4Cl)nn3)cn2)CC1` (stereo not shown) [Compound 52, 2-chloro-N-(6-((E)-2-(2-(((1r,4r)-4-(dimethylamino)cyclohexyl)amino)pyrimidin-5-yl)vinyl)pyridazin-3-yl)benzenesulfonamide], for which the 50% effective concentration (EC50) was in the range of 5 to 50 nM. The same measure, in the same setting: the same measure for `NC1CCC(Nc2ncc(/C=C/c3ccc(NS(=O)(=O)c4ccccc4Cl)c(F)c3)cn2)CC1` (stereo not shown) [Compound 3, N-(4-((E)-2-(2-(((1r,4r)-4-aminocyclohexyl)amino)pyrimidin-5-yl)vinyl)-2-fluorophenyl)-2-chlorobenzenesulfonamide]: ≤ 5 nM; for `COc1nc(NS(=O)(=O)c2ccccc2Cl)c(F)cc1/C=C/c1cnc(NC2CCC(N)CC2)nc1` (stereo not shown) [Compound 54, N-(5-((E)-2-(2-(((1r,4r)-4-aminocyclohexyl)amino)pyrimidin-5-yl)vinyl)-3-fluoro-6-methoxypyridin-2-yl)-2-chlorobenzenesulfonamide]: 50 to 100 nM; for `COc1nc(NS(=O)(=O)c2ccccc2Cl)ccc1/C=C/c1cnc(NC2CCC(N3CCCCC3)CC2)nc1` (stereo not shown) [Compound 60, 2-chloro-N-(6-methoxy-5-((E)-2-(2-(((1r,4r)-4-(piperidin-1-yl)cyclohexyl)amino)pyrimidin-5-yl)vinyl)pyridin-2-yl)benzenesulfonamide]: ≤ 5 nM. For the compound `COc1cc(NS(=O)(=O)c2ccccc2Cl)c(F)cc1/C=C/c1cnc(NC2CCC(N(C)C)CC2)nc1` (stereo not shown) [Compound 67, 2-chloro-N-(4-((E)-2-(2-(((1r,4r)-4-(dimethylamino)cyclohexyl)amino)pyrimidin-5-yl)vinyl)-2-fluoro-5-methoxyphenyl)benzenesulfonamide], the EC50 is ≤ 5 nM. Take `CN(C)C1CCC(Nc2ncc(/C=C/c3ccc(NS(=O)(=O)c4cccc(F)c4Cl)nc3)cn2)CC1` (stereo not shown) [Compound 68, 2-chloro-N-(5-((E)-2-(2-(((1r,4r)-4-(dimethylamino)cyclohexyl)amino)pyrimidin-5-yl)vinyl)pyridin-2-yl)-3-fluorobenzenesulfonamide]: the concentration for a half-maximal effect (EC50) is ≤ 5 nM. Take `Cc1nc(NS(=O)(=O)c2ccccc2Cl)c(F)cc1/C=C/c1cnc(NC2CCC(N)CC2)nc1` (stereo not shown) [Compound 58, N-(5-((E)-2-(2-(((1r,4r)-4-aminocyclohexyl)amino)pyrimidin-5-yl)vinyl)-3-fluoro-6-methylpyridin-2-yl)-2-chlorobenzenesulfonamide]: the EC50 was in the range of 50 to 100 nM. For `CN(C)C1CCC(Nc2ncc(/C=C/c3ccc(NS(=O)(=O)c4ccc(F)cc4Cl)nc3)cn2)CC1` (stereo not shown) [Compound 61, 2-chloro-N-(5-((E)-2-(2-(((1r,4r)-4-(dimethylamino)cyclohexyl)amino)pyrimidin-5-yl)vinyl)pyridin-2-yl)-4-fluorobenzenesulfonamide], the EC50 was ≤ 5 nM.

`CNC1CCC(Nc2ncc(/C=C/c3cc(F)c(NS(=O)(=O)c4ccccc4Cl)nc3OC)cn2)CC1` (stereo not shown) [Compound 59, 2-chloro-N-(3-fluoro-6-methoxy-5-((E)-2-(2-(((1r,4r)-4-(methylamino)cyclohexyl)amino)pyrimidin-5-yl)vinyl)pyridin-2-yl)benzenesulfonamide] came in with an EC50 of 50 to 100 nM.

Take `COc1c(/C=C/c2cnc(NC3CCC(N(C)C)CC3)nc2)ccc(NS(=O)(=O)c2ccccc2Cl)c1F` (stereo not shown) [Compound 66, 2-chloro-N-(4-((E)-2-(2-(((1r,4r)-4-(dimethylamino)cyclohexyl)amino)pyrimidin-5-yl)vinyl)-2-fluoro-3-methoxyphenyl)benzenesulfonamide]: the concentration for a half-maximal effect (EC50) is ≤ 5 nM.

In the case of `COc1nc(NS(=O)(=O)c2cnccc2Cl)ccc1/C=C/c1cnc(NC2CCC(N(C)C)CC2)nc1` (stereo not shown) [Compound 56, 4-chloro-N-(5-((E)-2-(2-(((1r,4r)-4-(dimethylamino)cyclohexyl)amino)pyrimidin-5-yl)vinyl)-6-methoxypyridin-2-yl)pyridine-3-sulfonamide], the concentration giving a half-maximal response (EC50) was 50 to 100 nM. Still for that read-out and setting: with `CN(C)C1CCC(Nc2ncc(/C=C/c3ccc(NS(=O)(=O)c4cccc(Cl)c4Cl)nc3)cn2)CC1` (stereo not shown) [Compound 63, 2,3-dichloro-N-(5-((E)-2-(2-(((1r,4r)-4-(dimethylamino)cyclohexyl)amino)pyrimidin-5-yl)vinyl)pyridin-2-yl)benzenesulfonamide] the figure was ≤ 5 nM; with `COc1cc(NS(=O)(=O)c2cnccc2Cl)ccc1/C=C/c1cnc(NC2CCC(N(C)C)CC2)nc1` (stereo not shown) [Compound 65, 4-chloro-N-(4-((E)-2-(2-(((1r,4r)-4-(dimethylamino)cyclohexyl)amino)pyrimidin-5-yl)vinyl)-3-methoxyphenyl)pyridine-3-sulfonamide], ≤ 5 nM. On the same count and under the same terms, with `COc1nc(NS(=O)(=O)c2ccccc2Cl)ccc1/C=C/c1cnc(NC2CCC(N3CCSCC3)CC2)nc1` (stereo not shown) [Compound 64, 2-chloro-N-(6-methoxy-5-((E)-2-(2-(((1r,4r)-4-thiomorpholinocyclohexyl)amino)pyrimidin-5-yl)vinyl)pyridin-2-yl)benzenesulfonamide] the figure was ≤ 5 nM; with `Cc1nc(NS(=O)(=O)c2cnccc2Cl)ccc1/C=C/c1cnc(NC2CCC(N(C)C)CC2)nc1` (stereo not shown) [Compound 62, 4-chloro-N-(5-((E)-2-(2-(((1r,4r)-4-(dimethylamino)cyclohexyl)amino)pyrimidin-5-yl)vinyl)-6-methylpyridin-2-yl)pyridine-3-sulfonamide], 50 to 100 nM. Compound `COc1nc(NS(=O)(=O)c2cccc(F)c2Cl)ccc1/C=C/c1cnc(NC2CCC(N(C)C)CC2)nc1` (single isomer, unassigned) [Compound 53, 2-chloro-N-(5-((E)-2-(2-(((1r,4r)-4-(dimethylamino)cyclohexyl)amino)pyrimidin-5-yl)vinyl)-6-methoxypyridin-2-yl)-3-fluorobenzenesulfonamide] showed an EC50 of 50 to 100 nM.
